Results published in patent US12059413B2, “Methods of inhibiting viruses using compositions targeting TSG101-ubiquitin interaction” (The Research Foundation for the State University of New York, priority 2016, dated 2024).

Tested on: HIV-1 NL4-3 P7L
Experiment: Electron microscopy of budding morphologies, WT- or P7L-NL4-3
Format: cell-based
Settings: 50 μM N16
Experimental: FIG. 15A-D. N16 inhibits HIV-1 NL4-3 and Gag VLP production. A) Effect on virus production. Virus particles from N16-treated 293T cells transfected with pNL4-3 as determined by ELISA assay. Top, The compound was added 6 hr prior to DNA transfection and tissue culture media was harvested 24 hr later. Bottom, The compound was added at the indicated concentration 24 hr after DNA transfection and tissue culture media was harvested 24 hr later. Assay values were normalized to that of the DMSO carrier control. B) Effect on virus infectivity. Infectious viral particles per ng p24 as determined by MAGI assay. C) Left, Electron microscopy of particles at cell surface at 24 hr post-N16 addition; Right, Quantitative analysis of budding morphologies. Cells expressing WT- or P7L-NL4-3 were exposed to DMSO carrier or 50 μM N16. Arrows indicate emerging ‘Early’ buds. D) Effects on Gag VLP production. Top, Western blot analysis. Cells treated at the indicated concentration were transfected with DNA encoding Gag-HA. […] Bottom, Quantitative analysis. […]
Electron microscopy was used to identify the event arrested by N16 treatment. […] Treatment of P7L with N16 blocked the residual particle release that the mutation permits (mediated by Alix, an ESCRT adaptor, Fujii, K. et al. (2009)) and shifted the predominant form detected from ‘Tethered’ to ‘Early’.

With COc1ccc2[nH]c([S+]([O-])Cc3ncc(C)c(OC)c3C)nc2n1 (stereo not shown) [N16, tenatoprazole] the “residual particle release of P7L” value was “blocked”.
